From publication PMC2792609, “Effect of methomyl on hepatic mixed function oxidases in rats” (Indian Journal of Pharmacology, 2008)

How the values were obtained:
[1] = test system: Aminopyrine N-demethylase; assay: Hepatic microsomal aminopyrine N-demethylase activity; format: in vivo, rat
Method: (§1) Adult male rats (weighing 200-230 g) were divided into four groups of six animals each. Group 1 received an equivalent amount of saline and served as control. Animals from group 2, 3, and 4 were given methomyl 1, 2, and 4 mg/kg body weight i.p. respectively, between 8: 00 a.m. and 9:00 a.m., for three consecutive days. In the second set of experiments, adult male rats were divided into four groups. Animals from group 2, 3, and 4 were injected with 4 mg/kg body weight methomyl for one, three, and five successive days. The volume injected into the rats of body weight 200 g was 1 ml. In another experiment, adult female rats and old male rats (weighing 350-450 g, 8 months old) were divided into two groups of six animals each. Group 2 of each category received methomyl (4 mg/kg body weight, i.p., for three successive days), and group 1 of each category received an equivalent amount of saline and served as the control group.
The rats were sacrificed by cervical dislocation, 24 hours after the last dose. Their livers were perfused in situ with ice cold 1.15% KCl containing 0.05 mM EDTA, rapidly excised, blotted dry, weighed, minced and homogenized with two volumes of ice cold 0.25 M sucrose solution, in a Potter-Elvehjem type homogenizer. The homogenate was centrifuged at 10,000 × g for 10 min, in a refrigerated centrifuge (REMI C-24). The microsomes were isolated by the procedure described by of Cinti et al.[4] The microsomal pellet was suspended in phosphate buffer (0.1 M, pH 7.4) and the suspension was used for the microsomal enzyme assays. Microsomal protein content was measured by the Biuret method, using bovine serum albumin as the standard.[5]
The microsomal electron transport components (cytochrome P450 and cytochrome b5) were determined using Hitachi UV-Visible double beam recording spectrophotometer, by the procedure of Omura and Sato.[67] Cytochrome c reductase activity was determined using the method recommended by Masters et al.[8] Aminopyrine N-demethylase activity was assayed according to the procedure described by Schenkman et al.[9] Formaldehyde liberated during N-demethylation was estimated by the procedure described by Nash.[10] Aniline hydroxylase assay was performed using the procedure reported by Govindwar and Dalvi.[11]

[2] = test system: aspartate aminotransferase (SGOT); assay: Serum aspartate aminotransferase (SGOT) activity; format: in vivo, rat; conditions: for Increased activity of aspartate aminotransferase: 3 days
Method: (§2) Adult male rats (weighing 200-230 g) were divided into four groups of six animals each. Group 1 received an equivalent amount of saline and served as control. Animals from group 2, 3, and 4 were given methomyl 1, 2, and 4 mg/kg body weight i.p. respectively, between 8: 00 a.m. and 9:00 a.m., for three consecutive days. In the second set of experiments, adult male rats were divided into four groups. Animals from group 2, 3, and 4 were injected with 4 mg/kg body weight methomyl for one, three, and five successive days. The volume injected into the rats of body weight 200 g was 1 ml. […]
(§3) Alanine aminotransferase and aspartate aminotransferase activity was measured using the Reitman and Frankel[12] method. Alkaline phosphatase activity was measured using Span diagnostic kits.[13] Cholinesterase activity was measured using the kinetic test method of Knedel et al.[14]

[3] = test system: alanine aminotransferase (SGPT); assay: Serum alanine aminotransferase (SGPT) activity; format: in vivo, rat; conditions: for Increased activity of alanine aminotransferase: 3 days
Method: as §2, §3

[4] = Serum total protein; format: in vivo, rat; conditions: for decrease in total protein content: 3 days
Method: as §1

[5] = biological target: T1, Serum cholinesterase (Rattus norvegicus, UniProt Q9JKC1); assay: Serum cholinesterase activity; format: in vivo; conditions: for depression of acetyl cholinesterase activity: 3 days
T1 construct: from tissue; host or cells: rat serum
Method: as §2, §3

[6] = test system: Hemoglobin; assay: Hemoglobin content; format: in vivo, rat; conditions: for decrease in hemoglobin content: 3 days
Method: Group 1 received an equivalent amount of saline and served as control. Animals from group 2, 3, and 4 were given methomyl 1, 2, and 4 mg/kg body weight i.p. respectively, between 8: 00 a.m. and 9:00 a.m., for three consecutive days. […] Animals from group 2, 3, and 4 were injected with 4 mg/kg body weight methomyl for one, three, and five successive days. The volume injected into the rats of body weight 200 g was 1 ml. […]
Hemoglobin was measured using HLS-hemosafe reagent. The color obtained was measured colorimetrically at 530 nm.

[7] = test system: mixed function oxidases; conditions: quails; cited from earlier work
[8] = test system: old male rats; conditions: cited from earlier work
[9] = test system: Male Wistar rats; conditions: 4 mg/kg; cited from earlier work
[10] = test system: plasma ChE; conditions: methomyl aerosol, male rats, repeated inhalation; cited from earlier work
[11] = female rats, 4 mg/kg body weight i.p., for 3 days
[12] = male rats, 1 mg/kg body weight i.p., for three days
[13] = male rats, 2 mg/kg body weight i.p., for three days
[14] = male rats, 4 mg/kg body weight i.p., for three days

T1 sequence (Q9JKC1 24-597): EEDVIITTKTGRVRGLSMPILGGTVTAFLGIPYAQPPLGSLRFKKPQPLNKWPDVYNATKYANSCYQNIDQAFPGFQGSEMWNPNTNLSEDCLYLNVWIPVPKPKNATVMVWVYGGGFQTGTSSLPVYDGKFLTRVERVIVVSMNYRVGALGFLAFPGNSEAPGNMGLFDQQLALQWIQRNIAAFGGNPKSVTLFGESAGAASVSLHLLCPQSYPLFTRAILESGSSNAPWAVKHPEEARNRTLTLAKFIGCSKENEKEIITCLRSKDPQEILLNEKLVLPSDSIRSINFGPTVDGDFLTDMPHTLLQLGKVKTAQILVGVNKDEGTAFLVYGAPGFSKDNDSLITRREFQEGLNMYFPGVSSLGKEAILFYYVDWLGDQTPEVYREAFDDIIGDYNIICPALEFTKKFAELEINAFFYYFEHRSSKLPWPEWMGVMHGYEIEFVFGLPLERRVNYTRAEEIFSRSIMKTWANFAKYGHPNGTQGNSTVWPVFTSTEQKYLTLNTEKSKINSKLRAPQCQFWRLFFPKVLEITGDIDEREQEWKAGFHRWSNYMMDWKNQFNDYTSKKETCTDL

Question: What does the source list for `CNC(=O)ON=C(C)SC` [methomyl, S-methyl-N-(methyl carbomyl)-thioacetimidate]?
Answer: decrease in the activity of aminopyrine N-demethylase ([1]; adult female rat, 4 mg/kg i.p., three days, vs control): 26%; Aminopyrine N-demethylase ([1]; adult female rats, 4 mg/kg body weight, i.p., three days): 3.30 nmole of formaldehyde liberated/min/mg microsomal protein; Aminopyrine N-demethylase ([1]; adult male rats, 1 mg/kg i.p., for 3 days): 3.2 nmole of formaldehyde liberated/min/mg microsomal protein; decrease in the activity of aminopyrine N-demethylase ([1]; adult male rats, 2 mg/kg i.p., 3 days, vs control): 50%; Aminopyrine N-demethylase ([1]; adult male rats, 2 mg/kg i.p., for 3 days): 1.9 nmole of formaldehyde liberated/min/mg microsomal protein; decrease in the activity of aminopyrine N-demethylase ([1]; adult male rats, 4 mg/kg i.p., 3 days, vs control): 40%; decrease in activity of aminopyrine N-demethylase ([1]; adult male rats, 4 mg/kg i.p., five days, vs control): 31%; Aminopyrine N-demethylase ([1]; adult male rats, 4 mg/kg i.p., for 3 days): 2.3 nmole of formaldehyde liberated/min/mg microsomal protein; decrease in activity of aminopyrine N-demethylase ([1]; adult male rats, 4 mg/kg i.p., one day, vs control): 31%; decrease in activity of aminopyrine N-demethylase ([1]; adult male rats, 4 mg/kg i.p., three days, vs control): 51%; Aminopyrine N-demethylase ([1]; adult rats, 4 mg/kg i.p., 1 day of treatment): 3.11 nmole of formaldehyde liberated/min/mg microsomal protein; Aminopyrine N-demethylase ([1]; adult rats, 4 mg/kg i.p., 3 days of treatment): 2.20 nmole of formaldehyde liberated/min/mg microsomal protein; Aminopyrine N-demethylase ([1]; adult rats, 4 mg/kg i.p., 5 days of treatment): 3.09 nmole of formaldehyde liberated/min/mg microsomal protein; decrease in aminopyrine N-demethylase ([1]; old male rat, 4 mg/kg i.p., three days, vs control): 50%; Aminopyrine N-demethylase ([1]; old male rats, 4 mg/kg body weight, i.p., three days): 2.26 nmole of formaldehyde liberated/min/mg microsomal protein; SGOT [2, 11]: 51.0 u/l; Increased activity of aspartate aminotransferase ([2]; female rats, 4 mg/kg i.p.): 39%; SGOT [2, 12]: 35.7 u/l; SGOT [2, 13]: 37.9 u/l; Increased activity of aspartate aminotransferase ([2]; male rats, 2 mg/kg i.p.): 9%; SGOT [2, 14]: 40.9 u/l; Increased activity of aspartate aminotransferase ([2]; male rats, 4 mg/kg i.p.): 8%; SGPT [3, 11]: 50.0 u/l; Increased activity of alanine aminotransferase ([3]; female rats, 4 mg/kg i.p.): 24%; SGPT [3, 12]: 47.3 u/l; SGPT [3, 13]: 50.0 u/l; Increased activity of alanine aminotransferase ([3]; male rats, 2 mg/kg i.p.): 12%; SGPT [3, 14]: 53.6 u/l; Increased activity of alanine aminotransferase ([3]; male rats, 4 mg/kg i.p.): 20%; Serum total protein [4, 11]: 1.70 g/dL; decrease in total protein content ([4]; female rats, 4 mg/kg i.p.): 23%; Serum total protein [4, 12]: 2.02 g/dL; decrease in total protein content ([4]; male rats, 1 mg/kg i.p.): 13%; Serum total protein [4, 13]: 1.80 g/dL; decrease in total protein content ([4]; male rats, 2 mg/kg i.p.): 22%; Serum total protein [4, 14]: 1.60 g/dL; decrease in total protein content ([4]; male rats, 4 mg/kg i.p.): 30%; Serum cholinesterase [5, 11]: 844 u/l; depression of acetyl cholinesterase activity ([5]; female rats, 4 mg/kg i.p.): 66%; Serum cholinesterase [5, 12]: 1120 u/l; depression of acetyl cholinesterase activity ([5]; male rats, 1 mg/kg i.p.): 15%; Serum cholinesterase [5, 13]: 949 u/l; depression of acetyl cholinesterase activity ([5]; male rats, 2 mg/kg i.p.): 28%; Serum cholinesterase [5, 14]: 848 u/l; depression of acetyl cholinesterase activity ([5]; male rats, 4 mg/kg i.p.): 35%; decrease in hemoglobin content ([6]; female rat, 1 mg/kg i.p.): 21%; decrease in hemoglobin content ([6]; female rat, 2 mg/kg i.p.): 21%; decrease in hemoglobin content ([6]; female rat, 4 mg/kg i.p.): 29%; Hemoglobin ([6]; female rats, 1 mg/kg body weight i.p., for 3 days): 10.06 g/dL; Hemoglobin ([6]; female rats, 2 mg/kg body weight i.p., for 3 days): 10.00 g/dL; Hemoglobin [6, 11]: 9.06 g/dL; decrease in hemoglobin content ([6]; male rat, 1 mg/kg i.p.): 16%; decrease in hemoglobin content ([6]; male rat, 2 mg/kg i.p.): 25%; decrease in hemoglobin content ([6]; male rat, 4 mg/kg i.p.): 29%; Hemoglobin [6, 12]: 9.60 g/dL; Hemoglobin [6, 13]: 8.60 g/dL; Hemoglobin [6, 14]: 8.10 g/dL; activity of mixed function oxidases [7]: inhibited; hemoglobin content, hematocrit value, erythrocyte, and leucocyte count [8]: Decreased; duration of maximum severity [9]: about 30 min; time to development of signs of toxicity [9]: ≤ 2 min; time to maximum severity (muscle fasciculation and convulsions) [9]: 5 to 10 min; time until free from obvious toxicity [9]: ≤ 90 min; effect on plasma ChE [10]: marked suppression
